# Patent publication US8609870B2, “Treating various disorders using TrkB agonists” (Emory University, priority 2008, dated 2013)
# What was measured:
# TrkA = TrkA (Homo sapiens, UniProt P04629); test: [3H]-deoxygedunin ligand binding assay, TrkA
# [1] = biological target: TrkB intra-cellular domain (ICD) (Homo sapiens, UniProt Q16620); test: [3H]-deoxygedunin ligand binding assay, TrkB ICD; conditions: increasing concentrations of radioligand
# Description: (§1) Purified TrkB ECD or ICD proteins (10 μg/each) were incubated with different [^3H-deoxygedunin] in 1 ml binding buffer (0.05 M Na/K phosphate buffer (pH 7.1), 200 mM NaCl) (1 nM [^3H]deoxygedunin˜82300 cpm) at 4° C. for 10 minutes. After incubation, the reaction mixture was loaded on filter paper and washed with 3×5 ml Tris buffer (100 mM Tris, pH 7.1). The dried filter paper was put into a small vial and subjected to liquid scintillation counter analysis. The value of the dissociation constant and the number of sites were obtained from Scatchard plots by using the equation r/[L]free=n/Kd−r/Kd, where r is the ratio of the concentration of bound ligand to the total protein concentration and n is the number of binding sites.
# To determine whether an identified active compound physically and directly binds to the TrkB receptor, in vitro binding assays can be conducted with purified TrkB extracellular domain (ECD) and intracellular domain (ICD) recombinant proteins. Purified TrkB ECD and ICD (10 μg of each) are incubated with different concentrations of ^3H-labeled identified active compound in 1 ml of binding buffer (0.05M Na/K phosphate buffer, pH 7.1, 200 mM NaCl) at 4° C. for 10 minutes. After the incubation, the reaction mixture is loaded on filter paper. […]
# [2] = biological target: TrkB extra-cellular domain (ECD) (Homo sapiens, UniProt Q16620); test: [3H]-deoxygedunin ligand binding assay, TrkB ECD (Scatchard plot); conditions: increasing concentrations of radioligand
# Chain of TrkB extra-cellular domain (ECD) (Q16620 32-430 limits assumed): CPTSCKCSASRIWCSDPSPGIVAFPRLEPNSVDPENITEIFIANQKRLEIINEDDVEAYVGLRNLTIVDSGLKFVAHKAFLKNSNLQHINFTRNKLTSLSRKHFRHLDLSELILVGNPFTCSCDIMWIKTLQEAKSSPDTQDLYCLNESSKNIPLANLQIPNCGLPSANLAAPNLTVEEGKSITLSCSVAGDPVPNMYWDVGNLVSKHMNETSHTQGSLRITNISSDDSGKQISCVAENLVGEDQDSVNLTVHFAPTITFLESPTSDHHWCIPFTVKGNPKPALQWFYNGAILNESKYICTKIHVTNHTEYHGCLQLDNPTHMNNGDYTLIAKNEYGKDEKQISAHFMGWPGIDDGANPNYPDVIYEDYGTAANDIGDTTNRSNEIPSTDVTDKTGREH
# Description: as §1
# To determine whether an identified active compound physically and directly binds to the TrkB receptor, in vitro binding assays can be conducted with purified TrkB extracellular domain (ECD) and intracellular domain (ICD) recombinant proteins. Purified TrkB ECD and ICD (10 μg of each) are incubated with different concentrations of ^3H-labeled identified active compound in 1 ml of binding buffer (0.05M Na/K phosphate buffer, pH 7.1, 200 mM NaCl) at 4° C. for 10 minutes. After the incubation, the reaction mixture is loaded on filter paper. The mixture is washed three times with Tris buffer (100 mM Tris, pH 7.1), and the dried filter paper is put into a small vial and subjected to liquid scintillation counter analysis. […] The value of the dissociate constant and the number of sites will then be obtained from Scatchard plots using the equation r/[L]free=n/Kd−r/Kd, where r is the ratio of the concentration of bound ligand to the total protein concentration and n is the number of binding sites.
# To determine whether deoxygedunin binds the intra-cellular domain (ICD) or extra-cellular domain (ECD) of the TrkB receptor, ligand binding assays with [^3H]-deoxygedunin were performed. […] The coprecipitated HA-TrkB was also prominently tyrosine phosphorylated (see FIG. 14, 3rd panel).
# hippocampal neurons [3] = test: Glutamate-triggered apoptosis in hippocampal neurons (MR(DEVD)2 / condensed nuclei); type: cell-based; conditions: 0.5 μM preincubated 30 min, then 50 μM glutamate 16 h
# Description: To create and test reporter cell lines. In order to identify small molecules that mimic BDNF and activate TrkB, TrkB stably transfected murine cell lines are created. The T48 and T62 cell lines are created by transfecting basal forebrain SN56 cells, which express negligible TrkB, with a TrkB expression construct. To test expression of TrkB, the cells are treated with BDNF, which is predicted to result in strong phosphorylation of Trk-490 and Akt activation in comparison to the TrkA NTR stably expressing T17 cell line indicating expression of TrkB. To test resistance to apoptosis, the SN56 cells and the T48 cell line are either untreated or treated with BDNF, and then are subjected to an apoptotic assay. The apoptotic assay involves treating the cells with 0.75 μM Staurosporine for 9 hours, and 1 hour before completing the experiment, the cells are treated with 10 μM MR (DEVD)2. The cells then are fixed with 4% paraformaldehyde for 15 minutes, washed with phosphate buffered saline (PBS), and incubated with Hoechst 33342 for 10 minutes. Cover slides are washed with PBS, mounted, and then the cells are examined using a fluorescent microscope to see which cells turn red upon caspase cleavage.
# To compare the apoptosis inhibitory activity of identified active compounds, the compounds are preincubated with SN56 and T48 cells, and subsequently are subjected to the fluorescent apoptotic assay as described above. To examine whether these identified active compounds promote neuronal survival, hippocampal neurons are prepared and the cultures are pretreated with the identified active compounds for 30 minutes, followed by treatment with 50 μM glutamate for 16 hours.
# Using a cell-based screen as described above in Example 1 (based on the anti-apoptotic action of TrkB signaling) and the chemical library from the Spectrum Collection (described above), 66 positive hits were generated, four of which were gedunin derivatives. […] In this assay, neurons with both cleaved caspase (MR (DEVD)2 red cells) and condensed nuclei (DAPI staining) were counted as apoptotic cells. […]
# hippocampal neurons [4] = test: Oxygen-glucose deprivation (OGD) apoptosis in hippocampal neurons; type: cell-based; conditions: apoptotic ratio compared to BDNF and DMSO
# TrkB = biological target: T1, TrkB (Homo sapiens, UniProt Q16620); test: TrkB dimerization assay (GST pull-down, transfected HEK293 cells); type: cell-based
# T1 construct: expressed in transfected cells; host or cells: HEK293
# T1 sequence (Q16620 32-822, species assumed): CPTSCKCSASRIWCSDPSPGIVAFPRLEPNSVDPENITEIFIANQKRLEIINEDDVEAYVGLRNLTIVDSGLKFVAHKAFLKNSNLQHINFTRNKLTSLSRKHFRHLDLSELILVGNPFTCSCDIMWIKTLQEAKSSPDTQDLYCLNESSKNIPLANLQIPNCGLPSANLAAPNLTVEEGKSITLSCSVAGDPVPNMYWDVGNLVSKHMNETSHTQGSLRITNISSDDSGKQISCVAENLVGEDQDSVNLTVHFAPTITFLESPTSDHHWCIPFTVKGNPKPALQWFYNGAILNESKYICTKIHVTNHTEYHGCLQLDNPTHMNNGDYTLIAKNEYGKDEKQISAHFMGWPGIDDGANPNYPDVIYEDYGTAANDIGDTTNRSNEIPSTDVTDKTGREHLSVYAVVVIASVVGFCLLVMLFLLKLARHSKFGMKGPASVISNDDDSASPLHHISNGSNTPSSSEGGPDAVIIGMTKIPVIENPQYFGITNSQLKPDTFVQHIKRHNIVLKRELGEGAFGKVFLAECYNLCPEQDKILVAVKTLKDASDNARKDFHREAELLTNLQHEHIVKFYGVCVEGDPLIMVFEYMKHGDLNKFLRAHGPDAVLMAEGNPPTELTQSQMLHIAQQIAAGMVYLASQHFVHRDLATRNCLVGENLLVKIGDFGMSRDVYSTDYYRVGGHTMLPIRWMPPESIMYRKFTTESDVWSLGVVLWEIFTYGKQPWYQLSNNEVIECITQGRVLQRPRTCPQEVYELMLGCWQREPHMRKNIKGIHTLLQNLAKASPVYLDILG
# T1 sequence (Q16620 32-822, species assumed): as above
# Description: HEK293 cells transfected with GST-TrkB and HA-TrkA or TrkB were washed once in PBS, and lysed in 1 ml lysis buffer (50 mM Tris, pH 7.4, 150 mM NaCl, 1 mM EDTA, 0.5% Triton X-100, 1.5 mM Na3VO4, 50 mM NaF, 10 mM sodium pyrophosphate, 10 mM sodium β-glycerophosphate, 1 mM phenylmethylsulfonyl fluoride (PMSF), […], […] leupeptin, […] pepstatin A), and centrifuged for 10 minutes at 14,000×g at 4° C. The supernatant was then transferred to a fresh tube and transfected TrkB receptor was pulled down with glutathione beads. The coprecipitated proteins were resolved on SDS-PAGE. The samples were transferred to a nitrocellular membrane, and immunoblotting analysis was performed with a variety of antibodies.
# BDNF is known to bind the TrkB receptor and provoke its dimerization (Barbacid, J. Neurobiol., 25:1386-1403, 1994; Klein et al, Cell, 66:395-403, 1991). To explore whether an identified active compound triggers TrkB receptor dimerization, HEK293 cells are cotransfected with GST-TrkB and HA-TrkB or HA-TrkA. The cells then are treated with BDNF or an identified active compound (0.5 μM) for 30 minutes. […]
# Chain of TrkB intra-cellular domain (ICD) (Q16620 455-822 limits assumed): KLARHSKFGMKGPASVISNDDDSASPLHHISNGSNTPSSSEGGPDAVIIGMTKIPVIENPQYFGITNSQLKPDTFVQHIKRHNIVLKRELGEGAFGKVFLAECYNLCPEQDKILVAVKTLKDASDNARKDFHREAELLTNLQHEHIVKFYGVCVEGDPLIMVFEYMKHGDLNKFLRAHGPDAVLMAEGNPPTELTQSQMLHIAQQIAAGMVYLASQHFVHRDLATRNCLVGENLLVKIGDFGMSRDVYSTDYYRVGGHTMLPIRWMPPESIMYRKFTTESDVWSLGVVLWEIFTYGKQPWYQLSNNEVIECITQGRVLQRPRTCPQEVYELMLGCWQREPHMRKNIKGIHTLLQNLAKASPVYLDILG
# Chain of TrkA (P04629 33-796, species assumed): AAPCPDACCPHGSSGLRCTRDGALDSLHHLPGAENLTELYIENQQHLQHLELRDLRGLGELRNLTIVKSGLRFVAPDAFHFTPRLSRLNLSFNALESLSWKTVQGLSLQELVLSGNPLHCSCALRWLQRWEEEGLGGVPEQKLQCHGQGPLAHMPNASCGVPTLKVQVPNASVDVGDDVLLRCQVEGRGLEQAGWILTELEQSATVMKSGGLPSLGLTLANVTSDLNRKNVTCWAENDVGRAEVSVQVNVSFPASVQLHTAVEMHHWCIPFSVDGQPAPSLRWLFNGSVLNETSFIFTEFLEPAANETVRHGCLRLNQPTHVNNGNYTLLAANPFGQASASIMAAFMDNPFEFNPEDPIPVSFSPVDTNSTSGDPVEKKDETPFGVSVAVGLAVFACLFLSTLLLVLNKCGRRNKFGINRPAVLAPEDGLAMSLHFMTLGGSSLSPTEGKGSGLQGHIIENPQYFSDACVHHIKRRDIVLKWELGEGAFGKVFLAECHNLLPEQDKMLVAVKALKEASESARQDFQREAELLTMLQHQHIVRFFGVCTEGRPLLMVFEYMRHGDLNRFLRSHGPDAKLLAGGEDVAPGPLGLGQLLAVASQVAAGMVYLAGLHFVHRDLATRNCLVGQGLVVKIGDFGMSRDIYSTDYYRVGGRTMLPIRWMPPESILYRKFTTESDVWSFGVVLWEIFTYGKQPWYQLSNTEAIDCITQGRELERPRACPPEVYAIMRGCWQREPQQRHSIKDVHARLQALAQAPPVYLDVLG
TrkB dimerization (TrkB),Compound,binding to TrkA (TrkA),binding to TrkB ICD [1],binding to TrkB ECD [2],protective effect (apoptosis inhibitory activity) (hippocampal neurons [3]),protective effects on hippocampal neurons under OGD (hippocampal neurons [4])
–,32-[^3H]3-deoxygedunin [[^3H]-deoxygedunin],did not bind to TrkA,not the intra-cellular domain (ICD),progressively bound,–,–
notably promoted TrkB dimerization,"CC(=O)O[C@@H]1CC2C(C)(C)[C@H](O)CC[C@]2(C)C2CC[C@@]3(C)[C@H](c4ccoc4)OC(=O)C4OC43[C@@]21C (stereo partly drawn) [alpha-dihydrogedunol (epoxy ring down), alphadihydrogedunol (epoxy ring down)]",–,–,–,protective effect,potent protective effects
